Measured values as given in ChEMBL document CHEMBL4052702 (Bioorg Med Chem Lett, 2017).

Tests used:
Histone deacetylase 1 [1] = target: T1, Histone deacetylase 1 (Homo sapiens, UniProt Q13547); test: Inhibition of HDAC1 (unknown origin) by ELISA-based assay
Histone deacetylase 2 [2] = target: T2, Histone deacetylase 2 (Homo sapiens, UniProt Q92769); test: Inhibition of HDAC2 (unknown origin) by ELISA-based assay
Histone deacetylase 3 [3] = target: T3, Histone deacetylase 3 (Homo sapiens, UniProt O15379); test: Inhibition of HDAC3 (unknown origin) by ELISA-based assay
[4] = target: T4, Protein deacetylase HDAC6 (Homo sapiens, UniProt Q9UBN7); test: Inhibition of HDAC6 (unknown origin) by ELISA-based assay
T4 sequence (Q9UBN7 whole entry): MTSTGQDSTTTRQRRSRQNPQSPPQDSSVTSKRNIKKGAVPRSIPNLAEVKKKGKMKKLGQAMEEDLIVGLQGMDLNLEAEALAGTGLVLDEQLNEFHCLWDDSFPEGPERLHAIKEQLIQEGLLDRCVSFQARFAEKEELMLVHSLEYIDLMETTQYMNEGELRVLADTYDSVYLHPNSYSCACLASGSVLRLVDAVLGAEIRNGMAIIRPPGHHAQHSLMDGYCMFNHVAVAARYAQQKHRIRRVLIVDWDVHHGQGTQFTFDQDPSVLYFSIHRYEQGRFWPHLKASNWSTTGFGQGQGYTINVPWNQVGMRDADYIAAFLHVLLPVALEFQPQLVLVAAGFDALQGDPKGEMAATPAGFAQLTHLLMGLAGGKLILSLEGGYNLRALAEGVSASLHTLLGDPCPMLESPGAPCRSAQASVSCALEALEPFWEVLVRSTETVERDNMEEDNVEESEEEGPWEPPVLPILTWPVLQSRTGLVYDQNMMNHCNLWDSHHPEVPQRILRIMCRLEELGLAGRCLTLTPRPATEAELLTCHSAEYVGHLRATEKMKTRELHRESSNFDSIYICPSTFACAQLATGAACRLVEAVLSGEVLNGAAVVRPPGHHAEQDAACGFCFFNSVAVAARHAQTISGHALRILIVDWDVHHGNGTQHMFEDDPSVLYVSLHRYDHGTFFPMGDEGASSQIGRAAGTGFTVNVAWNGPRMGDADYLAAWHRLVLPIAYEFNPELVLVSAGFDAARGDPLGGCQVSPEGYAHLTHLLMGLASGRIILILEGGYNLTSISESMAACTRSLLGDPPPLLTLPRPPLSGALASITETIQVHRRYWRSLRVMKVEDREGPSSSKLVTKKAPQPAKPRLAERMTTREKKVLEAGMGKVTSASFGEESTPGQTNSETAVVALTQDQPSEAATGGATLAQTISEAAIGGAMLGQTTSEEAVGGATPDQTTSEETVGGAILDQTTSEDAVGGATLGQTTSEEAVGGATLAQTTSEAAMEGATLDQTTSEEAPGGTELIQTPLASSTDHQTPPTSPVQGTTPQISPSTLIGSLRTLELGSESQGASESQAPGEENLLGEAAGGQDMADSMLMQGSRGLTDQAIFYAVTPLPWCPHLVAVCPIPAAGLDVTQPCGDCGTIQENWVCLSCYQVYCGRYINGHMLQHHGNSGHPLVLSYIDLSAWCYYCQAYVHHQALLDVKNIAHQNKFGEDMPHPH

Histone deacetylase 8 = target: T5, Histone deacetylase 8 (Homo sapiens, UniProt Q9BY41); test: Inhibition of HDAC8 (unknown origin) by ELISA-based assay
T5 sequence (Q9BY41 whole entry): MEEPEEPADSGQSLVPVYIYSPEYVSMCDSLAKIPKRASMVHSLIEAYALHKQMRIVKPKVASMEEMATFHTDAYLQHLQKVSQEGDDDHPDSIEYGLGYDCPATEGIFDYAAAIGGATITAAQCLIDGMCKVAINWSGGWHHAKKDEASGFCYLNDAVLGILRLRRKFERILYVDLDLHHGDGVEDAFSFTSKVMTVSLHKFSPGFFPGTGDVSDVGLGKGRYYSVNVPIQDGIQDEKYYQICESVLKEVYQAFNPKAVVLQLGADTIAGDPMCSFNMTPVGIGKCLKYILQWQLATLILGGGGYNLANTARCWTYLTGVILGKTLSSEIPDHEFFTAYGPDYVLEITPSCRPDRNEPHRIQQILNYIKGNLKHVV

Histone deacetylase 1 [5] = target: T1, Histone deacetylase 1; test: Inhibition of HDAC1 (unknown origin) assessed as remaining enzyme activity at 2 x 10^-6 M by ELISA-based assay
Histone deacetylase 1 [6] = target: T1, Histone deacetylase 1; test: Inhibition of HDAC1 (unknown origin) assessed as remaining enzyme activity at 5 x 10^-7 M by ELISA-based assay
Histone deacetylase 2 [7] = target: T2, Histone deacetylase 2; test: Inhibition of HDAC2 (unknown origin) assessed as remaining enzyme activity at 4 x 10^-6 M by ELISA-based assay
Histone deacetylase 2 [8] = target: T2, Histone deacetylase 2; test: Inhibition of HDAC2 (unknown origin) assessed as remaining enzyme activity at 2 x 10^-6 M by ELISA-based assay
Histone deacetylase 3 [9] = target: T3, Histone deacetylase 3; test: Inhibition of HDAC3 (unknown origin) assessed as remaining enzyme activity at 4 x 10^-6 M by ELISA-based assay
Histone deacetylase 3 [10] = target: T3, Histone deacetylase 3; test: Inhibition of HDAC3 (unknown origin) assessed as remaining enzyme activity at 2 x 10^-6 M by ELISA-based assay
[11] = target: T6, Protein deacetylase HDAC6 (Homo sapiens) (UniProt Q9UBN7); test: Inhibition of HDAC6 (unknown origin) assessed as remaining enzyme activity at 8 x 10^-7 M by ELISA-based assay
T6 sequence (whole entry): T4 sequence (Q9UBN7 whole entry)

[12] = target: T6, Protein deacetylase HDAC6 (Homo sapiens); test: Inhibition of HDAC6 (unknown origin) assessed as remaining enzyme activity at 4 x 10^-7 M by ELISA-based assay
[13] = target: T6, Protein deacetylase HDAC6 (Homo sapiens); test: Inhibition of HDAC6 (unknown origin) assessed as remaining enzyme activity at 2 x 10^-7 M by ELISA-based assay
[14] = target: T6, Protein deacetylase HDAC6 (Homo sapiens); test: Inhibition of HDAC6 (unknown origin) assessed as remaining enzyme activity at 1 x 10^-7 M by ELISA-based assay
[15] = target: T6, Protein deacetylase HDAC6 (Homo sapiens); test: Inhibition of HDAC6 (unknown origin) assessed as remaining enzyme activity at 5 x 10^-8 M by ELISA-based assay
[16] = target: T7, Histone deacetylase 8 (Homo sapiens) (UniProt Q9BY41); test: Inhibition of HDAC8 (unknown origin) assessed as remaining enzyme activity at 1.6 x 10^-6 M by ELISA-based assay
T7 sequence (whole entry): T5 sequence (Q9BY41 whole entry)

[17] = target: T7, Histone deacetylase 8 (Homo sapiens); test: Inhibition of HDAC8 (unknown origin) assessed as remaining enzyme activity at 8 x 10^-7 M by ELISA-based assay
[18] = target: T7, Histone deacetylase 8 (Homo sapiens); test: Inhibition of HDAC8 (unknown origin) assessed as remaining enzyme activity at 4 x 10^-7 M by ELISA-based assay
[19] = target: T7, Histone deacetylase 8 (Homo sapiens); test: Inhibition of HDAC8 (unknown origin) assessed as remaining enzyme activity at 2 x 10^-7 M by ELISA-based assay
[20] = target: T7, Histone deacetylase 8 (Homo sapiens); test: Inhibition of HDAC8 (unknown origin) assessed as remaining enzyme activity at 1 x 10^-7 M by ELISA-based assay
Jurkat [21] = test: cells; assay type: functional; conditions: Homo sapiens, 44 h
Jurkat [22] = test: cells; assay type: functional; conditions: Homo sapiens, 44 h; remark: listed apart in the source

T3 sequence (O15379 whole entry): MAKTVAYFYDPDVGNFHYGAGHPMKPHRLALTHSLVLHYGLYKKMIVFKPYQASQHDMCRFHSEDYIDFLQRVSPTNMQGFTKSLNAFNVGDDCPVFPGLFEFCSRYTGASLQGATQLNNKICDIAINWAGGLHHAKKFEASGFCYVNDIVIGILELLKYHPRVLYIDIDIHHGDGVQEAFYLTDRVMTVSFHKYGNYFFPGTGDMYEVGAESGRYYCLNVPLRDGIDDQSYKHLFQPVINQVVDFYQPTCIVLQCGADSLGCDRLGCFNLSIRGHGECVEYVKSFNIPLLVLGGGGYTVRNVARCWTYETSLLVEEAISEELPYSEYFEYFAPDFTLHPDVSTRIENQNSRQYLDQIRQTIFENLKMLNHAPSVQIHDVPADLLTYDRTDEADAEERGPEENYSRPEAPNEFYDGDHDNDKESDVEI
T2 sequence (Q92769 whole entry): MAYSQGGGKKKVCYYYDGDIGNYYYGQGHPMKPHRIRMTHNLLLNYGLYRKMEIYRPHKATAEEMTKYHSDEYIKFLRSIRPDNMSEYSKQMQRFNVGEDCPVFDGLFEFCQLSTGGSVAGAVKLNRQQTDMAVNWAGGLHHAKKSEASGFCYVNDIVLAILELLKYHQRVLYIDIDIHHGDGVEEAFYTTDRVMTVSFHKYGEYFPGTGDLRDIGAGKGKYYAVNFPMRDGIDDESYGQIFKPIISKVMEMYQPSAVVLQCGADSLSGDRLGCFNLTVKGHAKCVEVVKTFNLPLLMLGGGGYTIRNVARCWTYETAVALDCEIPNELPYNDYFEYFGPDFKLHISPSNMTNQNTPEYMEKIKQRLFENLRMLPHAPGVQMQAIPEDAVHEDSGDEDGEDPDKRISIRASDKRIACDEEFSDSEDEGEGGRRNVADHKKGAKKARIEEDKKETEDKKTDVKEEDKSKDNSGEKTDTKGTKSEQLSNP
T1 sequence (Q13547 whole entry): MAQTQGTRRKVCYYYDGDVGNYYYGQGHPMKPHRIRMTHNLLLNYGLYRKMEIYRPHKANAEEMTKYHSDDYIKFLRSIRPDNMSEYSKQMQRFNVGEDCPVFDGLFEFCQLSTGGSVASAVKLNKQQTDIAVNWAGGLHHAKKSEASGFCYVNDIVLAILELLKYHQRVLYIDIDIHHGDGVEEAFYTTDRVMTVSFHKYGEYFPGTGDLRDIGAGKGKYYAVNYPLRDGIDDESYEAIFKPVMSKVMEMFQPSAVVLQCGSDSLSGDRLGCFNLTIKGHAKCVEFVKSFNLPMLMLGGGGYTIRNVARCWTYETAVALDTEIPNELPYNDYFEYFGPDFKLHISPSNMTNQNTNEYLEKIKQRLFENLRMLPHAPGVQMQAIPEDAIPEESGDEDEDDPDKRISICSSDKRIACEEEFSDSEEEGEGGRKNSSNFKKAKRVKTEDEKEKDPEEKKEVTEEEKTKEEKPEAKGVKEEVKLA

Which IC50 (Histone deacetylase 1 [1]) does the source give for `O=C(CCCC(CCC(=O)Nc1ccccc1)Cc1ccccc1)NO` (centres undefined) here?
Its IC50 is 2.9 µM.

And the IC50 (Histone deacetylase 2 [2])?
Its IC50 is 3.5 µM.

What about the IC50 (Histone deacetylase 3 [3]) of the same molecule?
The IC50 was 5.8 µM.

What about the IC50 [4] of the same molecule?
Its IC50 is 0.27 µM.

And the IC50 (Histone deacetylase 8)?
Its IC50 is 0.38 µM.

And the Activity (Histone deacetylase 1 [5])?
Its Activity is 54%.

What about the Activity (Histone deacetylase 1 [6]) of the same molecule?
The Activity was 84%.

And the Activity (Histone deacetylase 2 [7])?
The Activity was 49%.

What about the Activity (Histone deacetylase 2 [8]) of the same molecule?
Its Activity is 62%.

And the Activity (Histone deacetylase 3 [9])?
Its Activity is 53%.

What about the Activity (Histone deacetylase 3 [10]) of the same molecule?
Its Activity is 85%.

And the Activity [11]?
The Activity was 26%.

And the Activity [12]?
Its Activity is 43%.

What about the Activity [13] of the same molecule?
Its Activity is 54%.

What about the Activity [14] of the same molecule?
Its Activity is 76%.

And the Activity [15]?
The Activity was 83%.

What about the Activity [16] of the same molecule?
Its Activity is 19%.

What about the Activity [17] of the same molecule?
Its Activity is 33%.

What about the Activity [18] of the same molecule?
Its Activity is 47%.

What about the Activity [19] of the same molecule?
The Activity was 65%.

What about the Activity [20] of the same molecule?
The Activity was 82%.

What about the viability at 1 µM (Jurkat [21]) of the same molecule?
The viability at 1 µM was 71%.

What about the viability at 10 µM (Jurkat [22]) of the same molecule?
The viability at 10 µM was 50%.

Which IC50 (Histone deacetylase 1 [1]) does the source give for `CCCCCCC(CCCC(=O)NO)CCC(=O)Nc1ccccc1` (centres undefined) here?
Its IC50 is 2.1 µM.

And the IC50 (Histone deacetylase 2 [2])?
Its IC50 is 2.5 µM.

What about the IC50 (Histone deacetylase 3 [3]) of the same molecule?
The IC50 was 2.9 µM.

And the IC50 [4]?
The IC50 was 0.41 µM.

What about the IC50 (Histone deacetylase 8) of the same molecule?
The IC50 was 0.42 µM.

And the Activity (Histone deacetylase 1 [5])?
Its Activity is 54%.

What about the Activity (Histone deacetylase 1 [6]) of the same molecule?
Its Activity is 77%.

And the Activity (Histone deacetylase 2 [7])?
Its Activity is 41%.

And the Activity (Histone deacetylase 2 [8])?
The Activity was 57%.

And the Activity (Histone deacetylase 3 [9])?
Its Activity is 39%.

What about the Activity (Histone deacetylase 3 [10]) of the same molecule?
Its Activity is 67%.

And the Activity [11]?
The Activity was 34%.

What about the Activity [12] of the same molecule?
Its Activity is 54%.

What about the Activity [13] of the same molecule?
Its Activity is 66%.

What about the Activity [14] of the same molecule?
The Activity was 69%.

What about the Activity [15] of the same molecule?
The Activity was 82%.

And the Activity [16]?
Its Activity is 21%.

What about the Activity [17] of the same molecule?
The Activity was 35%.

And the Activity [18]?
Its Activity is 51%.

What about the Activity [19] of the same molecule?
The Activity was 70%.

What about the Activity [20] of the same molecule?
Its Activity is 78%.

What about the viability at 1 µM (Jurkat [21]) of the same molecule?
Its viability at 1 µM is 101%.

And the viability at 10 µM (Jurkat [22])?
Its viability at 10 µM is 24%.

How did the IC50 (Histone deacetylase 1 [1]) turn out when `CCCCC(CCCC(=O)NO)CCC(=O)Nc1ccccc1` (centres undefined) was run?
The IC50 was 1.1 µM.

And the IC50 (Histone deacetylase 2 [2])?
Its IC50 is 1.3 µM.

And the IC50 (Histone deacetylase 3 [3])?
Its IC50 is 1.6 µM.

And the IC50 [4]?
The IC50 was 0.32 µM.

And the IC50 (Histone deacetylase 8)?
Its IC50 is 0.43 µM.

And the Activity (Histone deacetylase 1 [5])?
The Activity was 37%.

What about the Activity (Histone deacetylase 1 [6]) of the same molecule?
Its Activity is 68%.

And the Activity (Histone deacetylase 2 [7])?
The Activity was 25%.

And the Activity (Histone deacetylase 2 [8])?
Its Activity is 38%.

What about the Activity (Histone deacetylase 3 [9]) of the same molecule?
Its Activity is 27%.

And the Activity (Histone deacetylase 3 [10])?
The Activity was 44%.

What about the Activity [11] of the same molecule?
Its Activity is 28%.

And the Activity [12]?
Its Activity is 48%.

What about the Activity [13] of the same molecule?
Its Activity is 60%.

What about the Activity [14] of the same molecule?
The Activity was 70%.

What about the Activity [15] of the same molecule?
The Activity was 90%.

What about the Activity [16] of the same molecule?
The Activity was 22%.

And the Activity [17]?
Its Activity is 35%.

What about the Activity [18] of the same molecule?
The Activity was 50%.

What about the Activity [19] of the same molecule?
The Activity was 69%.

What about the Activity [20] of the same molecule?
Its Activity is 83%.

And the viability at 1 µM (Jurkat [21])?
The viability at 1 µM was 67%.

What about the viability at 10 µM (Jurkat [22]) of the same molecule?
Its viability at 10 µM is 39%.
